# Measured values as given in ChEMBL document CHEMBL1126387, “Use of transferred nuclear overhauser effects to determine the conformation of 1-(3,4-dichlorophenyl)-2-aminopropane when bound to the active site of phenylethanolamine N-methyltransferace (PNMT)” (Bioorg Med Chem Lett, 1992).
# Target: T1, Phenylethanolamine N-methyltransferase (Bos taurus, UniProt P10938)
# T1 sequence (P10938 whole entry): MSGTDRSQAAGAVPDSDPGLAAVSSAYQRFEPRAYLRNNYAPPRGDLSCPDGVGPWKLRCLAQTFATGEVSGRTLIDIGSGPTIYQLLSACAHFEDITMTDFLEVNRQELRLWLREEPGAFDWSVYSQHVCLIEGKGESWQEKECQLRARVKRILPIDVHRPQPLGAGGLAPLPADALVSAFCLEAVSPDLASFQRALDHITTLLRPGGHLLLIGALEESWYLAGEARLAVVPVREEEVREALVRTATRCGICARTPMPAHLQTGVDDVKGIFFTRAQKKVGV
# Experiment: Inhibitory activity against bovine adrenal phenylethanolamine N-methyltransferase(PNMT)
compound,measurement,value
CC(N)Cc1ccc(Cl)c(Cl)c1 (stereo unspecified),Ki,6.7 µM
